Activity data for four molecules are collected here from ChEMBL document CHEMBL1240391, “High prevalence of ST131 isolates producing CTX-M-15 and CTX-M-14 among extended-spectrum-beta-lactamase-producing Escherichia coli isolates from Canada” (2010).

Holding throughout (type): functional
Experiment [1] has as its system Escherichia coli. Kind of experiment: Antimicrobial activity against Escherichia coli assessed as nonsusceptible isolates by CLSI method.
Experiment [2] concerns Escherichia coli. Kind of experiment: Antimicrobial activity against CTX-M15/CTX-M14 ESBL producing Escherichia coli ST131 clonal complex isolate assessed as nonsusceptible isolates by CLSI method.
Experiment [3] relates to Escherichia coli. Kind of experiment: Antimicrobial activity against ESBL producing Escherichia coli assessed as nonsusceptible isolates by CLSI method.

Turning to `NCC[C@H](O)C(=O)N[C@@H]1C[C@H](N)[C@@H](O[C@H]2O[C@H](CN)[C@@H](O)[C@H](O)[C@H]2O)[C@H](O)[C@H]1O[C@H]1O[C@H](CO)[C@@H](O)[C@H](N)[C@H]1O` [AMIKACIN], the Activity with Escherichia coli [1] turned out to be 39%; in the experiment with Escherichia coli [2], 45%; in the experiment with Escherichia coli [3], 35%.
The matching figures for GENTAMICIN: 50%, 67% and 35%.
`NC[C@H]1O[C@H](O[C@H]2[C@H](O)[C@@H](O[C@H]3O[C@H](CO)[C@@H](O)[C@H](N)[C@H]3O)[C@H](N)C[C@@H]2N)[C@H](N)C[C@@H]1O` [TOBRAMYCIN]: the Activity amounted to 69% in the experiment on Escherichia coli [1], 93% in the experiment with Escherichia coli [2] and 49% in the experiment with Escherichia coli [3].
In the case of `O=C1CN(/N=C/c2ccc([N+](=O)[O-])o2)C(=O)N1` [NITROFURANTOIN], the results for the Activity in the experiment with Escherichia coli [1], with Escherichia coli [2] and with Escherichia coli [3] were 8%, 4% and 12%, respectively.
